Data published in US20190352341A1, “MODIFIED PEPTIDES AND THEIR USE FOR TREATING SYSTEMIC LUPUS ERYTHEMATOSUS” (IMMUPHARMA FRANCE SA, priority 2018, published 2019).
“And” between values parts separate entries of the source, which are not always exact repeats. Equal entries are not always repeated. Numbered stars: 1 amine (or outer) side, 2 acyl side, 3 side chain; on linkers, the order of the positions; unused ones are H or OH. Square brackets hold non-standard residues; d marks the D form. Peptide text beside a SMILES is read from it. ξ: configuration not given here. X1 = CSCC[C@H](NC(=N)[C@H](Cc1c[nH]cn1)N[*:1])C(=O)[*:2]; pS = N[C@@H](COP(=O)(O)O)C(=O)O; Ile(3ξ) = CCC(C)[C@H](N)C(=O)O

What was measured:
[1] = tested on: SLE patients; test: Clinical trial in SLE patients (SRI-4 response); format: in vivo, human
Method: Human patients with SLE were administered the “standard of care” for SLE+placebo or SEQ ID NO.:1 (serine 10 phosphorylated) (“P140”). The P140 peptide was administered in a solution with mannitol; the placebo was a mannitol solution only. Patients were treated for 52 weeks.
Based on the protocol and the commonly accepted study design, there were two groups of patients: (1) patients receiving P140 plus “Standard of Care” and (2) patients receiving placebo plus “Standard of Care”. “Standard of Care” includes treatment with other drugs such as steroids, anti-malarials, methotrexate etc. No patients were treated just with placebo, but all were receiving other drug treatments. The definition of a “responder” is based on the SLE Responder Index (SRI-4) score, which requires a reduction of at least four points in this score. Therefore, patients who improve by less than four points are counted as non-responders, but also no distinction is made between patients who improve by more than 4 points, all being equal “responders”.
The SRI-4 score comprises criteria from three different internationally validated indices, SELENA-SLE Disease Activity Index (SELENA-SLEDAI), Physician Global Assessment (PGA) and the British Isles Lupus Assessment Group (BILAG) 2004. See Luijten, K. M. et al., Autoimmun Rev. 2012 March; 11(5):326-9.

[2] = tested on: Balb/c mice; test: 15-day ovalbumin-induced airway hypereosinophilia model, BAL cells; format: in vivo, mouse; parameters: Eosinophils / Neutrophils / T cells / B cells: unit not given here; settings: for B cells / Eosinophils / Macrophages / Neutrophils / T cells / Total cells: BAL
Method: The P140 phosphopeptide was solubilized in sterile water (Braun) and 10× concentrate sterile saline was added to adjust osmolarity to 300 mosm. Osmolarity was controlled with a micro osmometer (Loser, type 15) and validated (302 mosm).
The P140 phosphopeptide was used in vivo at the dose of 4 mg/kg by intranasal (i.n.) and intravenous (i.v.) routes. Control animals received equivalent volumes (1 ml/kg for i.n. and 2 ml/kg for i.v.) of saline (Table 6).
Nine-week-old male Balb/c mice were sensitized by intraperitoneal (i.p.) injections of a mixture containing 50 μg OVA (Sigma-Aldrich) and 2 mg alum (Sigma-Aldrich) in 0.1 ml saline. Mice were challenged by i.n. administration of 25 μl of OVA on day 5, then 25 μl of OVA and/or saline on day 12, 13 and 14. Mice were treated by i.v. injection (2 ml/kg) or i.n. administration (1 ml/kg) of P140 or solvent on day 9 (See FIG. 12).
[…] Performing Bronchoalveolar Lavage in the Mouse. Curr Protoc Mouse Biol 2:167-175). Mice were anaesthetized IP (Ketamine 150 mg/kg-Xylasine 10 mg/kg). Blood was collected from the heart, centrifuged at 10,000 g for 2 min and serum stored at −20° C. After semi-excision of the trachea, a plastic cannula was inserted, and airspace washed with 0.5 ml of 0.9% NaCl injected with a 1 ml syringe. This procedure was performed 10 times. The initial concentrated supernatant of the 2 first lavages (volume=2×0.5 ml administered, ˜0.5 ml recovered) was collected for cytokine measurements. The remaining BAL fluid was centrifuged (300 g for 5 min, 4° C.), and cell pellets pooled. The cell pellet was suspended in 500 μl of 0.9% NaCl and used for total cell counts evaluated on a Muse® Cell Analyser. Differential cell counts were assessed by flow cytometry (LSRII® cytometer, BD Bioscience). BAL cells were added with FCblock (0.5 μl, 553142, BD Bioscience) in a black microplate, incubated for 20 min at room temperature. Then, marker antibodies were added: CD11c-FITC (557400, BD bioscience), Gr-1-Pe-eFluor610 (61-5931-82, eBioscience), CD11b-APC-Cy7 (557657, BD bioscience), CD45-AlexaFluor700 (103128, BioLegend), CD3-BV605 (564009, BD bioscience), CD19-PE-Cy7 (552854, BD bioscience). Antibodies were incubated with BAL cells for 30 min at room temperature before DAPI (5 μl, BD bioscience) addition, and flow cytometry was performed immediately.
Data are presented as means±SEM. Differences between groups were tested for statistical significance using one-way ANOVA followed by Tukey's post-test. For statistical analysis, control groups 1, 2 and 3 were pooled.

[3] = tested on: C57BL/6 mice; test: DSS-induced mouse model of colonic inflammation; format: in vivo
Excerpt: Normal mice (C57BL/6; 7 week-old; males) have received the P140 peptide ([…], iv route; 10 mice) or saline only (control group; 10 mice) at days −2 and −1. At day 0, dextran sodium sulfate (DSS; 2-3%) was administrated to induce the disease.
Animals were examined every day for body weight loss, stool consistency, diarrhea, and blood in the feces. The animals were sacrificed around day 14 or at any time if they are very sick (loss >25% body weight). Statistics: Mann-Whitney (exact)

[4] = OVA challenge, P140-IN 4 mg/kg day 9, individual mice NL415-2_6 to _20
[5] = OVA challenge, P140-IN, 4 mg/kg day 9, individual mice NL415-2_12 to _22
[6] = saline challenge, P140-IN 4 mg/kg day 9, individual mice NL415-2_2, _8
[7] = saline challenge, P140-IN, 4 mg/kg day 9, individual mice NL415-2_4, _15
[8] = i.v. 4 mg/kg, OVA-challenged mice
[9] = P140 iv at days −2 and −1, DSS from day 0, vs saline group

CCC(C)[C@H](NC(=O)[C@H](Cc1ccccc1)NC(=O)[C@H](C)NC(=O)[C@H](Cc1ccc(O)cc1)NC(=O)CNC(=O)[C@H](CCCNC(=N)N)NC(=O)[C@@H]1CCCN1C(=O)[C@H](CCCCN)NC(=O)CNC(=O)[C@H](COP(=O)(O)O)NC(=O)[C@H](CCCNC(=N)N)NC(=O)[C@H](CCCCN)NC(=O)[C@H](CO)NC(=O)[C@H](Cc1ccc(O)cc1)NC(=O)[C@@H](NC(=O)[C@H](CCSC)NC(=N)[C@H](Cc1c[nH]cn1)NC(=O)[C@@H](NC(=O)[C@@H](N)CCCNC(=N)N)C(C)CC)C(C)C)C(=O)N[C@@H](CCC(=O)O)C(=O)N[C@@H](Cc1ccc(O)cc1)C(=O)O (some centres unmarked) [Compound P140] (H-R[Ile(3ξ)][X1]VYSKR[pS]GKPRGYAF[Ile(3ξ)]EY-OH)
Response rate (SRI-4) ([1]; Anti dsDNA+ European study population, placebo 48.8%): 71.1%
Response rate (SRI-4) ([1]; Anti dsDNA+ patients, full study population, 52 weeks, plus standard of care, placebo 47.3%): 61.5%
Patients in full remission ([1]; Anti dsDNA+ patients, none in the placebo group): 7.6%
Tolerability ([1]; SLE patients, 52 weeks): well tolerated
B cells [2, 4]: 25 606 and 32 251 and 26 562 and 23 383 and 33 156 and 13 236
Eosinophils [2, 4]: 490 306 and 497 948 and 737 671 and 839 841 and 792 249 and 615 171
Macrophages [2, 4]: 271 110 and 322 340 and 247 391 and 538 954 and 436 210 and 286 509
Neutrophils [2, 4]: 57 542 and 60 787 and 62 354 and 95 173 and 47 346 and 65 366
T cells [2, 4]: 44 036 and 61 800 and 73 159 and 118 360 and 101 951 and 61 293
Total cells [2, 4]: 862 995 and 942 875 and 1 120 576 and 1 592 328 and 1 377 755 and 1 028 339
B cells [2, 5]: 10 219 and 15 209 and 14 027 and 17 417 and 11 003 and 10 922
Eosinophils [2, 5]: 425 928 and 272 763 and 473 105 and 470 027 and 327 186 and 429 469
Macrophages [2, 5]: 439 265 and 442 055 and 244 523 and 293 070 and 342 134 and 379 565
Neutrophils [2, 5]: 42 783 and 21 442 and 59 616 and 76 867 and 40 275 and 31 756
T cells [2, 5]: 41 744 and 43 881 and 32 677 and 55 502 and 28 857 and 45 030
Total cells [2, 5]: 949 720 and 780 142 and 809 921 and 895 467 and 738 452 and 885 821
B cells [2, 6]: 112 and 242
Eosinophils [2, 6]: 168 and 103
Macrophages [2, 6]: 388 102 and 434 029
Neutrophils [2, 6]: 56 and 61
T cells [2, 6]: 4 135 and 4 180
Total cells [2, 6]: 392 461 and 438 573
B cells [2, 7]: 70 and 266
Eosinophils [2, 7]: 110 and 166
Macrophages [2, 7]: 335 658 and 335 200
Neutrophils [2, 7]: 259 and 133
T cells [2, 7]: 5311 and 4 790
Total cells [2, 7]: 341 738 and 340 389
Number of cells recovered in BAL fluid as compared to vehicle (saline) ([2]; i.n. or i.v., control mice challenged with saline): little effect per se
Inflammatory cell recruitment in BAL ([2]; i.n. route, OVA-challenged mice): little effect
B cells recruitment in BAL, change vs OVA group [2, 8]: −42%
Eosinophil recruitment in BAL, change vs OVA group [2, 8]: −50%
T cells recruitment in BAL, change vs OVA group [2, 8]: −66%
Neutrophils recruitment in BAL, change vs OVA group ([2]; i.v. 4 mg/kg, OVA-challenged mice, not significant): −38%
Body weight [3, 9]: No difference
Colon size [3, 9]: significant increase
DAI (disease activity index) [3, 9]: Little difference
Day at which blood appeared in the feces ([3]; control groups day +6): +8 day
